Test results: the supplement of paper PMC5908809

Legend:
[1] = tested on: normal NK cells expanded with K562-aAPC; experiment: percent inhibition of viability; higher = more inhibition; details: 72 h, IL-2 2.5 ng/mL
Description: (§1)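 Drug sensitivity and resistance testing on K562-aAPC-expanded normal NK cells: 5 concentrations (10-fold steps over a 10,000-fold range), 72 h at 37 °C, viability by CellTiter-Glo normalised to DMSO and benzethonium chloride controls; DSS from the fitted curve.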

DERL-7 (IL-2 2.5 ng/mL) [2] = experiment: drug sensitivity score (DSS) (DSS units); higher = more sensitive; extreme values may be limits of the assay; details: 72 h
[3] = tested on: normal primary NK cells, pool 3 (3 donors) (IL-2 2.5 ng/mL); experiment: as above; details: 72 h
KHYG-1 (IL-2 2.5 ng/mL) [4] = experiment: as above; details: 72 h
[5] = tested on: normal primary NK cells, pool 2 (3 donors) (IL-2 2.5 ng/mL); experiment: as above; details: 72 h
SNK-6 (IL-2 2.5 ng/mL) [6] = experiment: as above; details: 72 h
NK-YS (IL-2 2.5 ng/mL) [7] = experiment: as above; details: 72 h
[8] = tested on: normal primary NK cells, pool 1 (3 donors), resting (IL-2 0 ng/mL); experiment: as above; details: 72 h
KAI3 (IL-2 2.5 ng/mL) [9] = experiment: as above; details: 72 h
IMC-1 (IL-2 20 ng/mL) [10] = experiment: as above; details: 72 h
[11] = tested on: normal primary NK cells, pool 1 (3 donors) (IL-2 2.5 ng/mL); experiment: as above; details: 72 h
NK-92 (IL-2 2.5 ng/mL) [12] = experiment: as above; details: 72 h
YT (IL-2 2.5 ng/mL) [13] = experiment: as above; details: 72 h
NKL (IL-2 2.5 ng/mL) [14] = experiment: as above; details: 72 h
DERL-7 (IL-2 2.5 ng/mL) [15] = experiment: percent inhibition of viability; higher = more inhibition; details: 72 h
[16] = tested on: normal primary NK cells, pool 3 (3 donors) (IL-2 2.5 ng/mL); experiment: as above; details: 72 h
KHYG-1 (IL-2 2.5 ng/mL) [17] = experiment: as above; details: 72 h
[18] = tested on: normal primary NK cells, pool 2 (3 donors) (IL-2 2.5 ng/mL); experiment: as above; details: 72 h
SNK-6 (IL-2 2.5 ng/mL) [19] = experiment: as above; details: 72 h
NK-YS (IL-2 2.5 ng/mL) [20] = experiment: as above; details: 72 h
[21] = tested on: normal primary NK cells, pool 1 (3 donors), resting (IL-2 0 ng/mL); experiment: as above; details: 72 h
KAI3 (IL-2 2.5 ng/mL) [22] = experiment: as above; details: 72 h
IMC-1 (IL-2 20 ng/mL) [23] = experiment: as above; details: 72 h
[24] = tested on: normal primary NK cells, pool 1 (3 donors) (IL-2 2.5 ng/mL); experiment: as above; details: 72 h
NK-92 (IL-2 2.5 ng/mL) [25] = experiment: as above; details: 72 h
YT (IL-2 2.5 ng/mL) [26] = experiment: as above; details: 72 h
NKL (IL-2 2.5 ng/mL) [27] = experiment: as above; details: 72 h
[28] = tested on: normal NK cells expanded with K562-aAPC; experiment: drug sensitivity score (DSS) (DSS units); higher = more sensitive; extreme values may be limits of the assay; details: 72 h; IL-2 2.5 ng/mL
Description: as §1

Cc1nc(N)sc1-c1ccnc(Nc2ccc(N3CCOCC3)cc2)n1 [CYC-116] (max concentration tested 10000 nM)
percent inhibition of viability [%]
Details | 1 nM | 10 nM | 100 nM | 1000 nM | 10000 nM
DERL-7 (IL-2 2.5 ng/mL) [15] | -3.32 | -3.55 | 6.03 | 60.9 | 84.2
IMC-1 (IL-2 20 ng/mL) [23] | -0.53 | -4.65 | 3.54 | 44.8 | 83.8
KAI3 (IL-2 2.5 ng/mL) [22] | -1.55 | -6.85 | 1.16 | 39.8 | 89.7
KHYG-1 (IL-2 2.5 ng/mL) [17] | -0.11 | -0.55 | 5.34 | 70.7 | 106
NK-92 (IL-2 2.5 ng/mL) [25] | -10.5 | -10.4 | 3.17 | 39.8 | 72.8
NK-YS (IL-2 2.5 ng/mL) [20] | -2.66 | -0.98 | 6.79 | 70.6 | 70.8
NKL (IL-2 2.5 ng/mL) [27] | -16 | -8.68 | -5.36 | 42.6 | 83.9
SNK-6 (IL-2 2.5 ng/mL) [19] | 0.9 | -6.56 | 15.3 | 73.9 | 72.3
YT (IL-2 2.5 ng/mL) [26] | 0.75 | 1.77 | 4.66 | 29.5 | 94.7
[1] | -2.89 | -0.2 | 2.84 | 57.5 | 82
[16] | -12.5 | -8.65 | 4.23 | 3.35 | 71.4
[18] | -11.2 | -13.2 | -3.79 | 16.1 | 68.8
[21] | -4.6 | 6.4 | -9.95 | -18.7 | 23.6
[24] | -7.14 | -2.39 | -10.8 | 13.2 | 71.7

Details | drug sensitivity score
DERL-7 (IL-2 2.5 ng/mL) [2] | 12.4
IMC-1 (IL-2 20 ng/mL) [10] | 9.98
KAI3 (IL-2 2.5 ng/mL) [9] | 10.1
KHYG-1 (IL-2 2.5 ng/mL) [4] | 14.2
NK-92 (IL-2 2.5 ng/mL) [12] | 8.76
NK-YS (IL-2 2.5 ng/mL) [7] | 14.1
NKL (IL-2 2.5 ng/mL) [14] | 9.96
SNK-6 (IL-2 2.5 ng/mL) [6] | 16
YT (IL-2 2.5 ng/mL) [13] | 9.36
[3] | 4.4
[5] | 6.33
[8] | 0.44
[11] | 6.12
[28] | 11.5
